Patent US10934255B2, “Nrf and HIF activators/HDAC inhibitors and therapeutic methods using the same” (THE BOARD OF TRUSTEES OF THE UNIVERSITY OF ILLINOIS, priority 2017, dated 2021)

Key:
[1] = tested on: primary cortical neurons; assay: HCA-induced neurodegeneration assay (oxidative stress, glutathione depletion); format: cell-based; conditions: at 0.5 μM; protection declined at higher concentrations due to neurotoxicity
Description: FIG. 1 contains bar graphs of % cell survival vs. concentration for HCA evaluation of II-ING-66 using the glutathione depletion neurotoxicity model of oxidative stress. Immature primary cortical neurons were treated with the test compound alone or in the presence of HCA. Cell viability was assessed at 24 h using the MTT assay. Bar plot represents percentage control mean±SEM of viable cells (n=3). *p<0.05 and **p<0.01 compared to control (DMSO) (n=3/group). HCA oxidative stress assay.
Compound II-ING-66 was examined in a model of oxidative stress induced by homocysteic acid (HCA), where neurons were treated with the test compound alone or in the presence of HCA.
It has been shown that HDAC6 inhibition protects against neuronal degeneration and stimulates neurite outgrowth in dorsal root ganglion neurons, therefore indicating methods of treating CNS diseases. Accordingly, present compounds were examined in a model of oxidative stress induced by homocysteic acid (HCA). This model leads to depletion of glutathione, the major intracellular antioxidant. HDAC6 inhibition rescues neuronal death in this model, possibly by causing hyperacetylation of peroxiredoxins. […] (A. P. Kozikowski et al., J. Med. Chem. 2007, 50, 3054-61.) […]

[2] = tested on: α-tubulin acetylation; conditions: published results; cited from earlier work
[3] = tested on: prostate cancer (LNCaP) cells; conditions: via peroxiredoxin acetylation, published results; cited from earlier work

Row | SMILES | Neuroprotection in HCA-induced neurodegeneration [1] | Concentration inducing α-tubulin acetylation [2] [µM] | Concentration protecting from hydrogen peroxide-induced death [3] [µM]
1 | CC(/C=C/C(=O)NO)=C\[C@@H](C)C(=O)c1ccc(N(C)C)cc1 [TSA, Trichostatin A] | moderately neuroprotective |  | 
2 | O=C(CCCCCCC(=O)Nc1ccc([C@H]2O[C@@H](CSc3nc(-c4ccccc4)c(-c4ccccc4)o3)C[C@@H](c3ccc(CO)cc3)O2)cc1)NO [Tubacin] |  | 5 | 8
